Laboratory results taken from patent US20080095856A1, “Encapsulated Nanoparticles for Drug Delivery” (priority 2006, published 2008).
Peptide text beside a SMILES is read from it. * marks the point of attachment. X1 = O=C(O)[C@H]1CSC(c2nc3ccc(N*)cc3s2)=N1

Legend:
[1] = DPPH radical scavenger assay of antioxidative activity before and after SAS processing; assay type: biochemical; settings: maximum UV absorbance before and after addition of quercetin
Excerpt: The antioxidative activity of quercetin has not been diminished by this supercritical fluid process for nanoparticle formation. A radical scavenger DPPH (2,2,-diphenyl-1-picrylhydrazyl) was used to measure the EC50 value of DPPH at maximum UV absorbance before and after addition of quercetin.
Quercetin. Quercetin has been encapsulated with PLA (MW 50,000 and 100,000) using the following process parameters: T=40 C, P=100 bar, CO2 flow rate 50 g/min, 5:100 quercetin:polymer ratio using methanol as the cosolvent. Results can be seen in FIGS. 4A-4C. […] A radical scavenger DPPH (2,2,-diphenyl-1-picrylhydrazyl) was used to measure the EC50 value of DPPH at maximum UV absorbance before and after addition of quercetin.

[2] = Biodistribution of SKLQ-aminoluciferin by BLI in L2G85 mice; assay type: in vivo
Excerpt: PSA is a chymotrypsin-like enzyme which specifically cleaves the C-terminus of glutamine (Q) in the peptide sequence, SKLQ-aminoluciferin. Prodrugs have been used to take advantage of this specificity of PSA. […] Where the peptides or prodrugs are encapsulated with polymer, the current shortcomings in delivery of tumor-specific peptides is overcome. The peptides or drugs can be encapsulated with a protective polymer coating, and the payload released in the vascularized tumor regions. This approach prevents non-specific distribution of the drug and ensures stability of the peptide/drug, and utilizes the active proteases that are specific to a disease state to activate a prodrug at the region of interest.
The strategies developed for these studies are utilized in the study of biodistribution of luciferin nanoparticles. The nanoparticles are also tested using a xenograft model of prostate cancer. Appropriate cell lines have been developed for conducting experiments to study human prostate cancer models in animals. […] Both LNCaP and PC3M cells have successfully been implanted into SCID mice, and their growth kinetics have been successfully quantified using BLI. Luciferase present in the cells is used as the read out for delivery of luciferin and can also be used as for assessing tumor burden when we transition to testing chemotherapeutic agents. […]

SMILES | EC50 value of DPPH, before vs after SAS processing [1] | distribution in the animal ([2]; L2G85 mice) | stability in the body ([2]; in vivo, acted upon by various enzymes)
O=c1c(O)c(-c2ccc(O)c(O)c2)oc2cc(O)cc(O)c12 [quercetin] | the same before and after SAS processing |  | 
CC(C)C[C@H](NC(=O)[C@H](CCCCN)NC(=O)[C@@H](N)CO)C(=O)N[C@@H](CCC(N)=O)C(=O)Nc1ccc2nc(C3=N[C@@H](C(=O)O)CS3)sc2c1 [SKLQ-aminoluciferin] (H-SKLQ-X1; N-terminus and C-terminus assumed) |  | distributed non-specifically throughout the animal | unstable in the body
